We go through two compounds from patent publication US20140066465A1, “CANCER TREATMENT USING TYROSINE KINASE AND NF-kB INHIBITORS” (The Cleveland Clinic Foundation, priority 2012, published 2014).

The test system of data set [1] is erlotinib-resistant NSCLC cell lines (A549, H1975, and H1993). Description: cells. The method, then: Erlotinib-resistance NSCLC cell lines A549, H1975, and H1993 were used.
(§1) The cells were plated in 96-well plates at 2500-3000 cells per well, and allowed to attach overnight, with 6 replicates being used for each dose. First, the inventors detected the IC50 with single drug treatment for each cell line.

Data set [2] deals with sensitive cell lines. Description: MTT cell survival assay, single drug. The class given is cell-based. The conditions noted are these: single drug treatment. The method, then:
as §1
(Tetrazolium assays rely on reduction of a dye to a coloured formazan, in cell work by metabolically active cells.)

For data set [3] the following is noted: in vivo; cited from earlier work.
For data set [4], the target named is CYP3A4 (Homo sapiens, UniProt P08684). As to conditions: cited from earlier work.
CYP3A4, sequence (P08684 whole entry): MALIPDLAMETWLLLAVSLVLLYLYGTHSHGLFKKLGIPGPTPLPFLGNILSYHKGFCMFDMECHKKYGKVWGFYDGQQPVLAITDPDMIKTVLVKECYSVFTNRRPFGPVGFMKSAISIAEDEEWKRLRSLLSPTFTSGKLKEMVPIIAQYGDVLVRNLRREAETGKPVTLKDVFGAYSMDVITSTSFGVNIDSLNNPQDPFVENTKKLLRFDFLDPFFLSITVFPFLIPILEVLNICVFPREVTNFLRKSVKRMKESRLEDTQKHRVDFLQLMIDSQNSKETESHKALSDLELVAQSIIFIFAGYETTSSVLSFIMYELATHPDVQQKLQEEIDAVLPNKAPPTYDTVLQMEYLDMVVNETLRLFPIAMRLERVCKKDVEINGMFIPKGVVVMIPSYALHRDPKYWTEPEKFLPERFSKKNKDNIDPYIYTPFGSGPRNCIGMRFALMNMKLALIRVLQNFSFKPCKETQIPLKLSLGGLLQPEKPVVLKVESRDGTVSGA
The subject of data set [5] is H1975 cells. Briefly: PARP cleavage Western blot. As to conditions: 5 μM quinacrine, time course. The format is cell-based. On the technique in general: Immunoblotting shows a protein as a band on a membrane.
The subject of data set [6] is NF-κB. The method, then: For the NF-κB luciferase assay, A549 or H1975 cells were infected with the κB-luciferse construct PLANFκBluc and stably selected with puromycin or hygromycin. The reporter cells were then seeded in 96-well plates at 1-2×10^3 per well, allowed to attach overnight, and then treated with drugs and/or interleukin-1 for four hours. Cells were then harvested in reporter lysis buffer (Promega) and assayed for luciferase activity using the luciferase assay system (Promega).

For data set [7], the system named is NF-κB. The conditions noted are these: A549 or H1975 reporter cells; pretreated, then interleukin-1 for 6 h. As for the experimental part:
The reporter cells were then seeded in 96-well plates at 1-2×10^3 per well, allowed to attach overnight, and then treated with drugs and/or IL-1. Cells were then harvested in reporter lysis buffer (Promega) and assayed for luciferase activity using the luciferase assay system (Promega).

The test system of data set [8] is xenograft tumors originating from human renal cell carcinoma. The conditions noted are these: mice; cited from earlier work.

A word on the IC50: it is the concentration that inhibits the measured activity by half. A lower IC50 goes with inhibition by little substance. As to `C#Cc1cccc(Nc2ncnc3cc(OCCOC)c(OCCOC)cc23)c1` [erlotinib], the half-maximal inhibitory concentration (IC50) in data set [1] was 10000 to 20000 nM; in data set [2], about 20 nM. Moreover, the half life entry in data set [3] is reported as “about 36 hours”. Also, the route of clearance entry in data set [4] is “cleared predominantly by CYP3A4 methabolism”.
With `CCN(CC)CCCC(C)Nc1c2ccc(Cl)cc2nc2ccc(OC)cc12` (stereo not shown) [quinacrine], the IC50 in data set [1] fell in the range of 1000 to 2000 nM. Moreover, the “Apoptosis by PARP cleavage” value in data set [5] is “time-dependent increase of PARP cleavage”. In data set [6] (A549 or H1975 reporter cells, 4 h treatment, relative to untreated control), the “NF-κB-dependent luciferase reporter activity” value is “suppresses NF-κB-dependent luciferase reporter activity”. Further, in data set [6] (general statement of the inventors), the NF-κB activity result is on record as “profoundly suppresses NF-κB activity”. Moreover, in data set [7], the “IL-1-induced NF-κB-dependent luciferase reporter activity” value is reported as “suppresses interleukin-1 (IL-1)-induced NF-κB-dependent luciferase reporting activity”. Moreover, the anti-tumor effect entry in data set [8] is recorded as “anti-tumor effect”.
